“And” between values parts separate entries of the source, which are not always exact repeats. Equal values may be shown once. Read-outs that look alike come from different tables or passages of the source.
Columns and labels:
LNCaP cells [1] = assay: Internalization into LNCaP cells, relative cellular uptake to ([^125I]I-BA)KuE; type: cell-based; settings: c = 1.0 nM ^177Lu-labeled inhibitor, 37° C., 60 min, corrected for non-specific binding (10 μM 2-PMPA), mean ± SD (n = 3)
Protocol: PSMA-positive LNCAP cells (300265; Cell Lines Service GmbH) were cultivated in Dulbecco modified Eagle medium/Nutrition Mixture F-12 (1/1) (DMEM-F12, Biochrom) supplemented with fetal calf serum (FCS) (10%, Biochrom) and kept at 37° C. in a humidified CO2 atmosphere (5%). One day (24 h±2 h) prior to all experiments with LNCaP cells, the cultivated cells were harvested using a mixture of trypsin/ethylendiaminetetraacetate (0.05%/0.02%) and PBS and centrifuged. After centrifugation, the supernatant was disposed and the cell pellet resuspended in culture medium. Afterwards, cells were counted with a hemocytometer (Neubauer) and seeded in 24-well plates.
Subsequent to the removal of the culture medium, the cells were washed once with DMEM-F12-solution (500 μL, 5% BSA) and left to equilibrate for at least 15 min at 37° C. in DMEM-F12-solution (200 μL, 5% BSA). Afterwards, each well was treated with either DMEM-F12-solution (25 μL, 5% BSA) or 2-PMPA-solution (25 μL, 100 μm) for blockade. […] The experiment was terminated by placing the 24-well plate on ice for 3 min and the consecutive removal of the medium. Each well was rinsed with HBSS (250 μL) and the fractions from these first two steps combined, representing the amount of free radioligand. Removal of surface bound activity was accomplished by incubation of the cells with ice-cold 2-PMPA-solution (250 μL, 10 μm in PBS) for 5 min and subsequent rinsing with ice-cold PBS (250 μL). The internalized activity was determined through incubation of the cells in NaOH (250 μL, 1.0 m) and the combination with the fraction of the subsequent washing step with again NaOH (250 μL, 1.0 m). Each experiment (control and blockade) was performed in triplicate for each time point. Free, surface bound and internalized activity was quantified in a γ-counter.

[2] = Lipophilicity, logP in n-octanol/PBS of radiolabeled PSMA inhibitors; type: physicochemical; settings: pH 7.4
Protocol: The radiolabeled PSMA inhibitor (0.5 to 1.0 MBq) dissolved in PBS (500 μL, pH=7.4), was added to n-octanol (500 μL) in a reaction vial (1.5 mL), which was rigorously vortexed for 3 min (n=6). For quantitative phase separation, the mixture was centrifuged at 6,000 g for 5 min (Biofuge 15, Heraus Sepatech, Osterode, Germany). The activity from samples of each phase (100 μL) were measured in a γ-counter to obtain the log P(o/w) value.

LNCaP cells [3] = assay: Externalization kinetics / cell retention in LNCaP cells; type: cell-based; settings: for in vitro tumor cell retention: 60 min incubation
Protocol: FIG. 2: Externalization kinetics of selected ^177Lu-labeled PSMA inhibitors from LNCaP cells. […] Then, the supernatant was removed and once washed with DMEM-solution (5% BSA, 37° C.). Afterwards, either A) only DMEM-solution (5% BSA) or B) blockade DMEM-solution (5% BSA, 10 μm 2-PMPA) were added for replacement. The total cellular internalized activity at t=0 min was corrected for non-specific binding (10 μm 2-PMPA) and normalized to 100%. All data are expressed as mean±SD (n=3).
Externalization kinetics of the radiolabeled PSMA inhibitors were determined using LNCaP cells, which were similarly prepared as described for the internalization assay. After an initial cell-washing step with DMEM-F12-solution (5% BSA), the cells were left to recondition for at least 15 min at 37° C. Subsequently, the LNCaP cells were incubated with the respective radiolabeled peptide (25 μL, 10.0 nm) at 37° C. for 60 min in a total volume of 250 μL in each well. After 60 min, the supernatant with the unbound free fraction was removed and measured in a γ-counter for the calculation of total added radioactivity. An acid wash step was avoided to warrant enzyme integrity during the following externalization and recycling study. To determine the recycling rate, fresh DMEM-F12-solution (250 μL, 5% BSA) was given to the cells to allow re-internalization. In contrast, re-internalization was inhibited by addition of DMEM-F12-solution containing 2-PMPA (225 μL DMEM-F12 (5% BSA) and 25 μL of 100 μm 2-PMPA-solution (PBS)). The cells were then incubated for 0, 20, 40 and 60 min at 37° C. Consequently, the supernatant was removed and the cells were washed with ice-cold HBSS (250 μL). The combination of the supernatant and the volume of the concomitant washing step with HBSS (200 μL) account for externalized radioligand at the investigated time point. Further, the cells were then washed with ice-cold 2-PMPA HBSS solution (250 μL, 10 μm) twice, combined and thus represented the fraction of membrane-bound radioligand. The determination of the internalized fraction was achieved by lysis as described for the internalization assay with NaOH (250 μL, 1.0 m). The activities of free, externalized, membrane-bound and internalized radioligand were quantified in a γ-counter.

LNCaP-tumor xenograft = assay: Biodistribution in LNCaP-tumor xenograft bearing CB-17 SCID mice; type: in vivo
Protocol: All animal experiments were carried out in accordance with the general animal welfare regulations in Germany (Deutsches Tierschutzgesetz, approval #55.2-1-54-2532-71-13). For the tumor model, LNCaP cells (approx. 10^7 cells) were suspended in serum-free DMEM-F12 medium and Matrigel (1/1; v/v) (BD Biosciences, Germany) and inoculated onto the right shoulder of male, 6 to 8 weeks old CB-17 SCID mice (Charles River Laboratories, Sulzfeld, Germany). Animals were used after the tumor size reached 4 to 8 mm in diameter for experiments.

HSA = molecular target: T1, HSA (Homo sapiens, UniProt P02768); assay: HSA binding on Chiralpak HSA column; type: in vitro ADME; settings: human, 0.5 mg/mL
T1 construct: purchased Daicel Chemical Industries / Chiral Technologies Europe (Illkirch, France)
T1 sequence (P02768 25-609): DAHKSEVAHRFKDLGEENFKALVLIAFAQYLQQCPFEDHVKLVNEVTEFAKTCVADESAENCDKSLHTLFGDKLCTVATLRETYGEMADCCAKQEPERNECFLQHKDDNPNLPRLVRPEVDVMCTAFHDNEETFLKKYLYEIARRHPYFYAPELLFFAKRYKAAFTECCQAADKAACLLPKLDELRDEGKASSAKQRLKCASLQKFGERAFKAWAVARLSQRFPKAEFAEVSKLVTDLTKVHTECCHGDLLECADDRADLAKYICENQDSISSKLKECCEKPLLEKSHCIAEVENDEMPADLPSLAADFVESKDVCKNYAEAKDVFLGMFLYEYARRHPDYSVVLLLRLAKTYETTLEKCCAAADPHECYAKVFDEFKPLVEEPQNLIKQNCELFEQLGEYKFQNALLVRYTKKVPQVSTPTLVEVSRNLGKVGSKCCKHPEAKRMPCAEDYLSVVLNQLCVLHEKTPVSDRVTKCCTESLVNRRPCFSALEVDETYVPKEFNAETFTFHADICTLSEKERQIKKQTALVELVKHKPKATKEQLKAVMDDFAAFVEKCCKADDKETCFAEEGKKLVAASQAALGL
Protocol: HSA binding experiments were performed as previously described. […] For each run, 10 μL of the solution containing the inhibitor was injected into the RP-HPLC system and the retention time measured. […] Non-linear regression was established with OriginPro 2016G.

[4] = 1 h p.i., ^177Lu-labeled, n = 4
[5] = 1 h p.i., ^177Lu-labeled, n = 4, listed as [^177Lu]PSMA I&T
[6] = 24 h p.i., ^177Lu-labeled, n = 4
[7] = male, CB-17 SCID, mouse, in vivo, 1 h
[8] = male, CB-17 SCID, mouse, in vivo, 24 h

SMILES: O=C(O)CC[C@H](NC(=O)N[C@@H](CCCCNC(=O)CCCCCCC(=O)NCCCC[C@@H](NC(=O)[C@@H](Cc1ccccc1)NC(=O)[C@@H](Cc1ccc(O)c(I)c1)NC(=O)CCC(C(=O)O)N1CCN(CC(=O)O)CCN(CC(=O)O)CCN(CC(=O)O)CC1)C(=O)O)C(=O)O)C(=O)O (stereo partly shown) [PSMA I&T, DOTAGA-y(3-I)fk(Sub-KuE), reference compound]
- Internalization (LNCaP cells [1]; listed as [^177Lu]PSMA I&T): 75.5±1.6%
- Internalization (LNCaP cells [1]; listed as [^nat/177Lu]PSMA I&T): 75.5 ± 1.6%
- logP ([2]; distribution coefficient in n-octanol/PBS, radiolabeled inhibitor, mean ± SD (n = 6), read-out: logP): -4.12 ± 0.11
- in vitro tumor cell retention (LNCaP cells [3]; ^177Lu-labeled): 62.8±0.4%
- adrenal gland (LNCaP-tumor xenograft; [4]): 6.25 ± 2.59 % ID/g
- blood (LNCaP-tumor xenograft; [4]): 0.37 ± 0.10 % ID/g
- bone (LNCaP-tumor xenograft; [4]): 0.14 ± 0.04 % ID/g
- brain (LNCaP-tumor xenograft; [4]): 0.03 ± 0.01 % ID/g
- heart (LNCaP-tumor xenograft; [4]): 0.58 ± 0.15 % ID/g
- intestine (LNCaP-tumor xenograft; [4]): 0.59 ± 0.50 % ID/g
- liver (LNCaP-tumor xenograft; [4]): 0.37 ± 0.10 % ID/g
- lung (LNCaP-tumor xenograft; [4]): 1.32 ± 0.45 % ID/g
- muscle (LNCaP-tumor xenograft; [4]): 0.18 ± 0.07 % ID/g
- pancreas (LNCaP-tumor xenograft; [4]): 1.30 ± 1.39 % ID/g
- spleen (LNCaP-tumor xenograft; [4]): 13.8 ± 4.59 % ID/g
- stomach (LNCaP-tumor xenograft; [4]): 0.29 ± 0.06 % ID/g
- kidney (LNCaP-tumor xenograft; [5]): 128.9±10.7 % ID/g and 128.90 ± 10.74 % ID/g
- tumor (LNCaP-tumor xenograft; [5]): 4.7±1.0 % ID/g and 4.69±0.95 % ID/g
- adrenal g. (LNCaP-tumor xenograft; [6]): 1.06 ± 0.24 % ID/g
- blood (LNCaP-tumor xenograft; [6]): 0.012 ± 0.01 % ID/g
- bone (LNCaP-tumor xenograft; [6]): 0.01 ± 0.01 % ID/g
- brain (LNCaP-tumor xenograft; [6]): 0.02 ± 0.01 % ID/g
- heart (LNCaP-tumor xenograft; [6]): 0.05 ± 0.03 % ID/g
- intestine (LNCaP-tumor xenograft; [6]): 0.12 ± 0.06 % ID/g
- liver (LNCaP-tumor xenograft; [6]): 0.05 ± 0.01 % ID/g
- lung (LNCaP-tumor xenograft; [6]): 0.16 ± 0.03 % ID/g
- muscle (LNCaP-tumor xenograft; [6]): 0.01 ± 0.01 % ID/g
- pancreas (LNCaP-tumor xenograft; [6]): 0.05 ± 0.02 % ID/g
- spleen (LNCaP-tumor xenograft; [6]): 1.94 ± 1.01 % ID/g
- stomach (LNCaP-tumor xenograft; [6]): 0.05 ± 0.02 % ID/g
- tumor (LNCaP-tumor xenograft; 24 h p.i., ^177Lu-labeled, n = 4, listed as [^177Lu]PSMA I&T): 4.06±1.12 % ID/g

SMILES: O=C(O)CC[C@H](NC(=O)N[C@@H](CCC(=O)N[C@H](CCCNC(=O)C[C@@H](NC(=O)c1cc(C(=O)O)cc(C(=O)O)c1)C(=O)NCCCC[C@@H](NC(=O)[C@@H](Cc1ccc2ccccc2c1)NC(=O)[C@@H](Cc1ccc(O)cc1)NC(=O)[C@H](CNC(=O)c1cc(C(=O)O)cc(C(=O)O)c1)NC(=O)CCC(C(=O)O)N1CCN(CC(=O)O)CCN(CC(=O)O)CCN(CC(=O)O)CC1)C(=O)O)C(=O)O)C(=O)O)C(=O)O (stereo partly shown) [PSMA-66, DOTAGA-Dap(TMA)y-2-nal-k(d[N^5-orn-C^4-EuE]-TMA)]
- Internalization (LNCaP cells [1]; listed as [^177Lu]PSMA-66): 297.8±2.0% and 297.8%
- Internalization (LNCaP cells [1]; listed as [^nat/177Lu]PSMA-66): 297.8 ± 2.0%
- logP [2]: -4.25 ± 0.14
- HSA (albumin binding) (HSA): 64.4%
- in vitro tumor cell retention (LNCaP cells [3]; ^177Lu-labeled): 90.1±3.5%
- intracellular activity in the tumor cells (LNCaP cells [3]; after 1 h, ^177Lu-labeled): highest intracellular activity in the tumor cells after 1 h
- intracellular clearance (LNCaP cells [3]; re-internalization blocked with 100 μM 2-PMPA-solution): lower than for all other investigated compounds
- adrenal gland (LNCaP-tumor xenograft; [7]): 0.78 ± 0.07 % ID/g
- blood (LNCaP-tumor xenograft; [7]): 0.50 ± 0.03 % ID/g
- bone (LNCaP-tumor xenograft; [7]): 0.37 ± 0.13 % ID/g
- brain (LNCaP-tumor xenograft; [7]): 0.02 ± 0.01 % ID/g
- heart (LNCaP-tumor xenograft; [7]): 0.49 ± 0.06 % ID/g
- intestine (LNCaP-tumor xenograft; [7]): 0.21 ± 0.03 % ID/g
- liver (LNCaP-tumor xenograft; [7]): 0.32 ± 0.02 % ID/g
- lung (LNCaP-tumor xenograft; [7]): 0.62 ± 0.12 % ID/g
- muscle (LNCaP-tumor xenograft; [7]): 0.19 ± 0.07 % ID/g
- pancreas (LNCaP-tumor xenograft; [7]): 0.15 ± 0.04 % ID/g
- spleen (LNCaP-tumor xenograft; [7]): 1.93 ± 0.04 % ID/g
- stomach (LNCaP-tumor xenograft; [7]): 0.28 ± 0.04 % ID/g
- tumor/blood (LNCaP-tumor xenograft; [7]): 20.0
- tumor/kidney (LNCaP-tumor xenograft; [7]): 0.09
- tumor/muscle (LNCaP-tumor xenograft; [7]): 52.6
- adrenal g. (LNCaP-tumor xenograft; [8]): 0.09 ± 0.09 % ID/g
- blood (LNCaP-tumor xenograft; [8]): 0.003 ± 0.001 % ID/g
- bone (LNCaP-tumor xenograft; [8]): 0.02 ± 0.01 % ID/g
- brain (LNCaP-tumor xenograft; [8]): 0.01 ± 0.001 % ID/g
- heart (LNCaP-tumor xenograft; [8]): 0.03 ± 0.007 % ID/g
- intestine (LNCaP-tumor xenograft; [8]): 0.11 ± 0.07 % ID/g
- kidney (LNCaP-tumor xenograft; [8]): 20.92 ± 2.51 % ID/g
- liver (LNCaP-tumor xenograft; [8]): 0.14 ± 0.02 % ID/g
- lung (LNCaP-tumor xenograft; [8]): 0.03 ± 0.007 % ID/g
- muscle (LNCaP-tumor xenograft; [8]): 0.02 ± 0.006 % ID/g
- pancreas (LNCaP-tumor xenograft; [8]): 0.02 ± 0.007 % ID/g
- spleen (LNCaP-tumor xenograft; [8]): 0.09 ± 0.02 % ID/g
- stomach (LNCaP-tumor xenograft; [8]): 0.07 ± 0.03 % ID/g
- t/blood (LNCaP-tumor xenograft; [8]): 1910.0
- t/kidney (LNCaP-tumor xenograft; [8]): 0.3
- t/liver (LNCaP-tumor xenograft; [8]): 40.9
- t/muscle (LNCaP-tumor xenograft; [8]): 286.5

— patent US11497819B2, “PSMA ligands for imaging and endoradiotherapy” (priority 2017, dated 2022)
